Assay results taken from the supplement of paper PMC11821682.

What was measured:
HL-60 = assay: Cell Health Index (toxicity pseudo-probability over dose series) (index 0-1); higher = more cytotoxic / cell stress;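 further: HL-60 cells exposed 4 h at 37 °C to ten threefold dilutions spanning 5 nM to 100 µM, multiparametric flow cytometry features scored by machine-learning classification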
Danio rerio embryo [1] = assay: LEL larval photomotor response dark phase 120 hpf
Danio rerio embryo [2] = assay: BMC10 mortality 24-120 hpf; higher = less toxic
Method: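 ZBEscreen: dechorionated Tropical 5D zebrafish embryos were exposed from 4 hpf in 96-well plates (1% DMSO, 28 °C). All compounds were first tested at 100 µM; hits were retested at 0.005-100 µM. Morphology and mortality were scored at 120 hpf and fitted as BMC10 (3-parameter log-logistic, extra risk). The embryonic photomotor response at 24 hpf and the larval photomotor response at 120 hpf are given as lowest effect levels (K-S test, p<0.01). NA = not significant up to 100 µM; NT = not tested.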

Danio rerio embryo [3] = assay: BMC10 any morphological effect or mortality at 120 hpf; higher = less toxic
Danio rerio embryo [4] = assay: LEL embryonic photomotor response 24 hpf

Compound | Cell Health Index (HL-60) | LEL larval photomotor response dark phase 120 hpf (Danio rerio embryo [1]) [µM] | BMC10 mortality 24-120 hpf (Danio rerio embryo [2]) [µM] | BMC10 any morphological effect or mortality (Danio rerio embryo [3]) [µM] | LEL embryonic photomotor response 24 hpf (Danio rerio embryo [4]) [µM]
CC(=O)O[C@]1(C(C)=O)CC[C@H]2[C@@H]3C=C(C)C4=CC(=O)CC[C@]4(C)[C@H]3CC[C@@]21C [Megestryl acetate] | 0.449 | > 100 | 9.53 | 4.08 | 11.1
CC[C@@]1([C@@H]2O[C@@H]([C@H]3O[C@@](O)(CO)[C@H](C)C[C@@H]3C)C[C@@H]2C)CC[C@H]([C@]2(C)CC[C@]3(C[C@H](O)[C@@H](C)[C@@H]([C@@H](C)[C@@H](OC)[C@H](C)C(=O)[O-])O3)O2)O1.[Na+] [Monensin] | 0.493 | 0.005 | 28.5 | 27.5 | > 100
COc1c(C)c2c(c(O)c1C/C=C(\C)CCC(=O)O)C(=O)OC2 [Mycophenolic acid] | 0.204 | > 100 | 1.93 | 1.23 | 11.1
CCCCCCC(=O)CCCCCC/C=C/C[C@@H](O)[C@H](O)[C@@](N)(CO)C(=O)O [Myriocin] | 0.324 | > 100 | 1.46 | 1.03 | > 100
CC(C)C(=O)SCCCCCCC(=O)Nc1nc(-c2ccccc2)cs1 [NCH-51] | 0.268 | > 100 | 0.624 | 0.188 | 0.41
CCCCCCCCCCCCCCCC[n+]1ccn(Cc2ccccc2)c1C.[I-] [NH125 parent] | 0.949 | > 100 | 8.53 | 7.19 | 33.3
CCCCCCCC/C=C\CCCCCCCCCCCCCC(=O)O [Nervonic acid] | 0.175 | > 100 | 31 | 30.9 | > 100
CC(=O)Oc1ccccc1C(=O)Nc1ncc([N+](=O)[O-])s1 [Nitazoxanide] | 0.723 | > 100 | 45.9 | 44.9 | > 100
N[C@H]1C[C@@H]1c1ccc(-c2cccc(O)c2)cc1 [OG-L002] | 0.334 | > 100 | 15.4 | 3.27 | 0.015
COc1ccc(C(=O)O[C@H]2[C@H](O[C@@H]3[C@@H](OC(C)=O)[C@H](O[C@H]4C[C@H]5[C@@H]6CC=C7C[C@@H](O)CC[C@]7(C)[C@H]6CC[C@]5(C)[C@@]4(O)[C@H](C)C(=O)CCC(C)C)OC[C@@H]3O)OC[C@@H](O)[C@@H]2O)cc1 [OSW-1] | 0.822 | 0.14 | 0.03 | 0.03 | > 100
CC1(C)CC[C@]2(C(=O)O)CC[C@]3(C)C(=CC[C@@H]4[C@@]5(C)CC[C@H](O)C(C)(C)[C@@H]5CC[C@]43C)[C@@H]2C1 [Oleanolic acid] | 0.354 | > 100 | 8.42 | 3.43 | > 100
COc1c(O)cc2oc(-c3ccccc3)cc(=O)c2c1O [Oroxylin A] | 0.234 | > 100 | 64.9 | 27.2 | > 100
O=C1C=CC2=CC=C(OC)C(C/C=C(C)\C)=C2O1 [Osthole] | 0.355 | > 100 | 8.94 | 3.1 | 3.7
Cc1ccc2c(c1)c1c3n2CCNC3CCC1 (stereo not given) [Pirlindole] | 0.298 | > 100 | 12 | 5.42 | 33.3
CCOC(=O)c1ccc(OCCC2CCN(c3ccc(C)nn3)CC2)cc1 [Pirodavir] | 0.528 | > 100 | 1.43 | 2.02 | 3.7
Cc1cc(CCCOc2c(C)cc(-c3noc(C(F)(F)F)n3)cc2C)on1 [Pleconaril] | 0.48 | > 100 | 6.8 | 1.15 | 0.41
CCc1nc(N)nc(N)c1-c1ccc(Cl)cc1 [Pyrimethamine] | 0.324 | > 100 | 30 | 3.56 | 100
COc1ccc2nc3cc(Cl)ccc3c(Nc3cc(CN4CCCC4)c(O)c(CN4CCCC4)c3)c2n1.O=P(O)(O)O.O=P(O)(O)O.O=P(O)(O)O.O=P(O)(O)O [Pyronaridine] | 0.929 | > 100 | 3.65 | 1.18 | 3.7
COc1ccccc1NC(=O)c1ccccc1Sc1ccc([N+](=O)[O-])cc1 [RN-18] | 0.491 | > 100 | 11.8 | 10 | 11.1

Compound | Cell Health Index (HL-60) | LEL larval photomotor response dark phase 120 hpf (Danio rerio embryo [1]) [µM] | BMC10 mortality 24-120 hpf (Danio rerio embryo [2]) [µM] | BMC10 any morphological effect or mortality (Danio rerio embryo [3]) [µM] | LEL embryonic photomotor response 24 hpf (Danio rerio embryo [4]) [µM]
O=C(Nc1cc(C(F)(F)F)ccc1N1CCCCC1)c1ccncc1 [SRPIN340] | 0.799 | > 100 | 10.3 | 0.68 | 33.3
C[C@H]1O[C@@H](O[C@H]2CC[C@@]3(C)[C@@H](CC[C@]4(C)[C@@H]3C=C[C@]35OC[C@@]6(CCC(C)(C)C[C@H]63)[C@@H](O)C[C@]54C)[C@]2(C)CO)[C@H](O)[C@@H](O[C@@H]2O[C@H](CO)[C@@H](O)[C@H](O)[C@H]2O)[C@H]1O [Saikosaponin A] | 0.959 | > 100 | 1.46 | > 100 | > 100
CN1CCN(CCOc2cc(OC3CCOCC3)c3c(Nc4c(Cl)ccc5c4OCO5)ncnc3c2)CC1 [Saracatinib] | 0.695 | > 100 | 45.7 | 15.5 | 100
COc1cc2c(c(OC)c1OC)-c1c(cc(OC)c(OC)c1OC)C[C@H](C)[C@H](C)C2 [Schisandrin A] | 0.661 | > 100 | 3.4 | 3.78 | 0.015
OC1=C2C(C(C=C([C@@](O)([H])C/C=C(C)\C)C2=O)=O)=C(O)C=C1 [Shikonin] | 0.884 | > 100 | 1.73 | 1.08 | 3.7
COc1ccc2c(O[C@@H]3C[C@H]4C(=O)N[C@]5(C(=O)NS(=O)(=O)C6CC6)C[C@H]5/C=C\CCCCN(C)C(=O)[C@@H]4C3)cc(-c3nc(C(C)C)cs3)nc2c1C.[Na] [Simeprevir] | 0.903 | > 100 | 5.01 | 3.6 | > 100
Fc1ccc(CNc2ncnc3ccc(F)cc23)cc1 [Spautin-1] | 0.772 | 1.23 | 1.17 | 0.511 | 3.7
COc1ccc(CC(C)C(C)Cc2ccc(OC)c(OC)c2)cc1OC (stereo not given) [Terameprocol] | 0.506 | > 100 | 24 | 3.12 | 3.7
CCN(CC)CCOc1ccc2c(c1)C(=O)c1cc(OCCN(CC)CC)ccc1-2.Cl.Cl [Tilorone] | 0.506 | > 100 | 9.79 | 3.55 | > 100
O=C(Nc1ncc([N+](=O)[O-])s1)c1ccccc1O [Tizoxanide] | 0.736 | > 100 | 44.2 | 29.5 | > 100
CN1CCN(CCCN2c3ccccc3Sc3ccc(C(F)(F)F)cc32)CC1.Cl.Cl [Trifluoperazine] | 0.898 | > 100 | 4.13 | 3.55 | 11.1
N#CC(=C(/N)Sc1ccccc1N)/C(C#N)=C(\N)Sc1ccccc1N [U0126] | 0.558 | > 100 | 11.5 | 4.02 | 33.3
S=C(N(C1=CC=CC=C1)C(/C2=C\C3=CC=C(C4=CC=CC=C4[N+]([O-])=O)O3)=O)N(C5=CC=CC=C5)C2=O [UCF 101] | 0.876 | > 100 | 4.93 | 3.23 | > 100
CCOC(=O)c1c(CSc2ccccc2)n(C)c2cc(Br)c(O)c(CN(C)C)c12.Cl [Umifenovir] | 0.791 | > 100 | 6.28 | 3.37 | 3.7
C[C@H]1[C@H](C)CC[C@]2(C(=O)O)CC[C@]3(C)C(=CC[C@@H]4[C@@]5(C)CC[C@H](O)C(C)(C)[C@@H]5CC[C@]43C)[C@H]12 [Ursolic acid] | 0.434 | > 100 | 3.95 | 0.748 | > 100
CC(=O)c1c(O)c(C)c(O)c2c1OC1=CC(=O)C(C(C)=O)C(=O)C12C (stereo not given) [Usnic acid] | 0.406 | > 100 | 1.77 | 1.01 | 33.3
C=CC(=O)N1CC/C(=C\c2ccc(F)c([N+](=O)[O-])c2)C(=O)/C(=C/c2ccc(F)c([N+](=O)[O-])c2)C1 [VLX1570] | 0.884 | > 100 | 1.38 | 1.26 | > 100
C/C1=C/CC/C(C)=C/CC(C)(C)/C=C/C1=O [Zerumbone] | 0.238 | > 100 | 9.91 | 2.66 | 11.1
